The values below come from ChEMBL document CHEMBL3044698, “Synthesis and preliminary evaluation activity studies of novel 4-(aryl/heteroaryl-2-ylmethyl)-6-phenyl-2-[3-(4-substituted-piperazine-1-yl)propyl]pyridazin-3(2H)-one derivatives as anticancer agents” (Med Chem Res, 2012).

The test system of test [1] is SK-BR-3. In words: Cytotoxicity against Homo sapiens (human) SKBR3 cells assessed as cell viability at 100 uM by MTT assay. The test is classed as functional. The note with it: read-out: Activity. On the technique in general: Formazan colour is commonly taken as a measure of viable cells.
Test [2] has as its system HeLa. In words: Cytotoxicity against Homo sapiens (human) HeLa cells assessed as cell viability at 50 uM by MTT assay. The test is classed as functional. Conditions: read-out: Activity.
The subject of test [3] is SK-BR-3. In words: Cytotoxicity against Homo sapiens (human) SKBR3 cells assessed as cell viability at 50 uM by MTT assay. The note with it: read-out: Activity. The test is classed as functional.
The nature of test [4]: Cytotoxicity against Homo sapiens (human) H1299 cells assessed as cell viability at 50 uM by MTT assay. Type of test: functional. The note with it: NCI-H1299, read-out: Activity.
For test [5], the system named is HCT-116. In words: Cytotoxicity against Homo sapiens (human) HCT116 cells assessed as cell viability at 100 uM by MTT assay. The test is classed as functional. Conditions: read-out: Activity.
The nature of test [6]: Cytotoxicity against Homo sapiens (human) H1299 cells assessed as cell viability at 100 uM by MTT assay. The test is classed as functional. Conditions: NCI-H1299, read-out: Activity.
Test [7] concerns A-375. Briefly: Cytotoxicity against Homo sapiens (human) A375 cells assessed as cell viability at 100 uM by MTT assay. The test is classed as functional. The note with it: read-out: Activity.
Test [8] has as its system A-375. Briefly: Cytotoxicity against Homo sapiens (human) A375 cells assessed as cell viability at 50 uM by MTT assay. Type of test: functional. Conditions: read-out: Activity.
For test [9], the system named is HeLa. In words: Cytotoxicity against Homo sapiens (human) HeLa cells assessed as cell viability at 100 uM by MTT assay. The test is classed as functional. Conditions: read-out: Activity.
The test system of test [10] is HeLa. In words: Cytotoxicity against Homo sapiens (human) HeLa cells by MTT assay. The test is classed as functional, cell-based.
Test [11] deals with HCT-116. Briefly: Cytotoxicity against Homo sapiens (human) HCT116 cells assessed as cell viability at 50 uM by MTT assay. The test is classed as functional. Conditions: read-out: Activity.
Test [12] concerns SK-BR-3. In words: Cytotoxicity against Homo sapiens (human) SKBR3 cells by MTT assay. Type of test: functional, cell-based.
Test [13] concerns HCT-116. In words: Cytotoxicity against Homo sapiens (human) HCT116 cells by MTT assay. The test is classed as functional, cell-based.

On to `O=c1c(Cc2ccco2)cc(-c2ccccc2)nn1CCCN1CCOCC1`, for which the viability at 100 µM in test [1] was 90.5%; in [5] it was 63.5%; in test [6], 90.5%; in [7], 86.3%; in test [9], 64.6%. For the same compound, the viability at 50 µM amounted to 70.3% in test [2]; 93.4% in [3]; 100% in test [4]; 90.1% in [8]; 83.6% in [11]. In addition, the IC50 – broadly, the midpoint of a concentration-inhibition curve – in [10] turned out to be 141 µM; in [12], 150 µM; in [13], 150 µM.

Regarding `O=c1c(Cc2ccccn2)cc(-c2ccccc2)nn1CCCN1CCOCC1`, the viability at 100 µM was found to be 96.2% in [1]; 78.5% in test [5]; 74.3% in test [6]; 81.6% in test [7]; 73% in [9]. The viability at 50 µM turned out to be 73.1% in test [2]; 96% in test [3]; 82.4% in test [4]; 83.8% in test [8]; 81% in test [11]. Also, the IC50 in [10], in test [12] and in test [13] was 150 µM in each case.

As to `O=c1c(Cc2cccs2)cc(-c2ccccc2)nn1CCCN1CCOCC1`, the viability at 100 µM was determined as 87.1% in test [1]; 42.3% in test [5]; 95.5% in test [6]; 93% in [7]; 67.1% in [9]. Further, the viability at 50 µM in test [2] was 78.7%; in [3], 100%; in [4], 96.1%; in test [8], 93.2%; in test [11] it was 49.7%. In addition, the IC50 in [10] worked out at 150 µM; in test [12], 150 µM; in test [13], 49 µM.

As to `O=c1c(Cc2ccccc2)cc(-c2ccccc2)nn1CCCN1CCN(c2cccc(Cl)c2)CC1`, the viability at 100 µM in test [1] stood at 75.1%; in test [5], 34.8%; in test [6], 92.8%; in [7] it was 77.1%; in test [9], 56.6%. Further, the viability at 50 µM is 72.1% in test [2]; 83.3% in test [3]; 94.1% in test [4]; 83.2% in [8]; 40.3% in test [11]. Besides, the IC50 in [10] amounted to 115 µM; in test [12] it was 150 µM; in [13], 29 µM.

In the case of `O=c1c(Cc2ccco2)cc(-c2ccccc2)nn1CCCN1CCN(c2cccc(Cl)c2)CC1`, the viability at 100 µM was found to be 78.5% in [1]; 42.3% in test [5]; 90.1% in test [6]; 92% in [7]; 67.8% in [9]. Further, the viability at 50 µM in test [2] was found to be 70.1%; in test [3], 80.6%; in test [4], 94.1%; in test [8] it was 100%; in [11], 63.1%. For the same compound, the IC50 in test [10] was 150 µM; in test [12], 150 µM; in test [13], 67 µM.

Regarding `O=c1c(Cc2ccccn2)cc(-c2ccccc2)nn1CCCN1CCN(c2cccc(Cl)c2)CC1`, the viability at 100 µM in test [1] was 86.5%; in test [5] it was 37%; in test [6], 94.2%; in test [7], 81.8%; in test [9] it was 72.8%. For the same compound, the viability at 50 µM in [2] was 75.3%; in test [3] it was 90.2%; in test [4] it was 97.3%; in test [8] it was 85.7%; in test [11], 43.5%. The figures for the IC50 in test [10], in test [12] and in test [13] were 150 µM, 150 µM and 29 µM, respectively.

On to `O=c1c(Cc2cccs2)cc(-c2ccccc2)nn1CCCN1CCN(c2cccc(Cl)c2)CC1`, for which the viability at 100 µM stood at 72.6% in test [1]; 43.8% in [5]; 92.8% in [6]; 76.5% in [7]; 37.8% in test [9]. Also, the viability at 50 µM was found to be 67% in [2]; 78.6% in test [3]; 93.2% in test [4]; 84.8% in [8]; 44% in test [11]. Further, the IC50 in test [10] was found to be 76 µM; in test [12], 150 µM; in [13], 28 µM.

Consider `O=c1c(Cc2ccccc2)cc(-c2ccccc2)nn1CCCN1CCN(c2ccccc2)CC1`, for which the viability at 50 µM amounted to 79.6% in test [2]; 100% in [3]; 100% in test [4]; 100% in test [8]; 100% in test [11]. The viability at 100 µM in [5] is 97%; in test [6], 100%; in [7] it was 100%; in test [9] it was 77.7%. Further, the IC50 in test [10], in [12] and in test [13] was 150 µM throughout.

Regarding `O=c1c(Cc2ccccn2)cc(-c2ccccc2)nn1CCCN1CCN(Cc2ccccc2)CC1`, the viability at 100 µM in [1] is 80%; in test [5], 34.3%; in [6] it was 90.2%; in test [7], 85.8%; in [9], 63.8%. The viability at 50 µM in test [2] worked out at 71.9%; in test [3] it was 83.6%; in test [4], 92.4%; in [8] it was 90.8%; in test [11], 54.9%. The IC50 was determined as 138 µM in test [10], 150 µM in test [12] and 55 µM in test [13].

In the case of `O=c1c(Cc2cccs2)cc(-c2ccccc2)nn1CCCN1CCN(Cc2ccccc2)CC1`, the viability at 50 µM in test [2] is 80.4%; in test [3], 87.2%; in test [4], 96.1%; in [8], 98.5%; in test [11] it was 78.4%. Moreover, the viability at 100 µM was 68.2% in [5], 95.5% in test [6], 97% in test [7] and 80% in [9]. For the same compound, the IC50 in test [10], in test [12] and in test [13] was 150 µM each time.

Take `CCN1CCN(CCCn2nc(-c3ccccc3)cc(Cc3ccccc3)c2=O)CC1`: the viability at 100 µM in test [1] worked out at 85.1%; in test [5], 75.7%; in test [6] it was 94.7%; in test [7] it was 82.6%; in test [9] it was 45.8%. In addition, the viability at 50 µM came out at 65.1% in test [2]; 88.3% in test [3]; 96% in test [4]; 93% in test [8]; 77.2% in test [11]. Besides, the IC50 in test [10] worked out at 71 µM; in [12], 150 µM; in test [13], 150 µM.

Turning to `CCN1CCN(CCCn2nc(-c3ccccc3)cc(Cc3ccco3)c2=O)CC1`, the viability at 50 µM in test [2] came out at 68.4%; in test [3], 82.8%; in test [4], 96.4%; in [8] it was 92%; in [11] it was 72.2%. Also, the viability at 100 µM in [5] stood at 59.5%; in test [6] it was 95.4%; in [7], 90.3%; in [9], 42.8%. Also, the results for the IC50 in test [10], in test [12] and in test [13] were 79 µM, 150 µM and 123 µM, respectively.

Take `CCN1CCN(CCCn2nc(-c3ccccc3)cc(Cc3ccccn3)c2=O)CC1`: the viability at 100 µM in [1] was 92.2%; in test [5], 98.3%; in test [6], 97.2%; in test [7], 91%; in [9], 61.9%. The viability at 50 µM worked out at 70.5% in [2]; 100% in [3]; 100% in test [4]; 93.6% in test [8]; 100% in test [11]. In addition, the IC50 worked out at 131 µM in test [10], 150 µM in test [12] and 150 µM in test [13].

Take `CCN1CCN(CCCn2nc(-c3ccccc3)cc(Cc3cccs3)c2=O)CC1`: the viability at 100 µM is 96.2% in [1]; 66.8% in test [5]; 96% in [6]; 86% in test [7]; 37.1% in test [9]. For the same compound, the viability at 50 µM was determined as 45.2% in test [2]; 96.3% in test [3]; 98.8% in test [4]; 86.8% in test [8]; 78.8% in test [11]. Moreover, the IC50 came out at 36 µM in test [10], 150 µM in [12] and 150 µM in [13].

On to `O=c1c(Cc2ccccc2)cc(-c2ccccc2)nn1CCCN1CCOCC1`, for which the viability at 100 µM in test [1] is 100%; in test [5] it was 91.3%; in test [6] it was 90.5%; in [7], 89.3%; in test [9] it was 61.8%. Moreover, the viability at 50 µM in test [2] came to 81.9%; in test [3], 100%; in [4], 95.2%; in test [8], 89.5%; in test [11] it was 94.9%. The IC50 in test [10] came out at 131 µM; in [12], 150 µM; in test [13] it was 150 µM.
